Test results reported in patent US20220151989A1, “LIPOIC ACID PRODRUG” (SANTEN PHARMACEUTICAL CO., LTD., priority 2019, published 2022).

Assays:
lens elasticity [1] = test: Pharmacological Test-3: lens elasticity, Compounds 5 and 6, 3 times per day for 14 days; assay type: in vivo,  mice; conditions: for Lens elasticity improvement: 0.03% (w/v) solution in Vehicle C, both eyes, 3 times per day for 14 days, 9-month-old mice; for lens elasticity improving effect: at a concentration of 0.03%
Experimental: The effects of Compounds 5 and 6 on the lens elasticity were investigated.
Compound 5 was stirred with the addition of Vehicle C to give a 0.03% (w/v) solution.
Compound 6 was stirred with the addition of Vehicle C to give a 0.03% (w/v) solution.
EV06 was stirred with the addition of Vehicle C to give a 0.03% (w/v) solution, which was used for comparison to the samples of Compounds 5 and 6.
1) Each test sample (2.5 μL/eye) was instilled into both eyes of 9-month-old […] mice with a Pipetman 3 times per day (around 9:00, 13:00 and 17:00) for 14 days. 2) After the final instillation, the mice were euthanized by carbon dioxide inhalation, and then the eyeballs were extracted and rinsed with Hank's balanced salt solution (HESS). 3) The sclera near the optic nerve was cut with a razor, the lens was removed through the incision, and the removed lens was immersed in HESS. 4) The lens was placed on a glass slide, and an all-in-one fluorescence microscope BZ-9000 (Keyence) was used to capture an image of the lens (Image a). 5) Next, one cover glass (Corning^(registered trade mark) 22×22 mm Square) was placed on the lens, and an image in which the thickness of the lens changed due to the weight was similarly captured (Image b). 6) A change in the lens diameter was calculated from the following Equation 1 wherein the lens diameter of Image a is subtracted from the lens diameter of Image b. Then, the lens elasticity improvement of each sample group compared with the vehicle control group was calculated from Equation 2 described below. The mean value of the vehicle control group was based on 8 eyes, and the mean value of each of the sample groups of Compounds 5 and 6 and EV06 was based on 10 eyes.
(§1) Change in lens diameter=Lens diameter in Image b of each test sample−Lens diameter in Image a of each test sample (Equation 1)
(§2) Lens elasticity improvement of each sample group=Mean change in lens diameter of each Test sample group−Mean change in lens diameter of Vehicle control group (Equation 2)

lens elasticity [2] = test: Pharmacological Test-1: lens elasticity after instillation 3 times per day for 12 to 15 days; assay type: in vivo, C57BL/6J mice; conditions: for Lens elasticity improvement: 0.03% (w/v) solution, 2.5 μL/eye, right eye, 3 times per day for 12 to 15 days, 8-month-old mice, vs vehicle control; for lens elasticity improving effect: at a concentration of 0.03%
Experimental: The effects of compounds 1 to 4 on the lens elasticity were examined. The tests were conducted with reference to the methods described in Invest Ophthalmol Vis Sci, 57, 2851-2863, 2016.
A vehicle (aqueous solution) comprising 0.1% (w/v) of ethyl pyruvate, 0.269% (w/v) of sodium dihydrogenphosphate monohydrate (NaH2PO4.H2O), 0.433% (w/v) of di sodium hydrogenphosphate (Na2HPO4), 0.2% (w/v) of hydroxypropyl methylcellulose, 0.5% (w/v) of NaCl, 1.0% (w/v) of polyoxyl 35 castor oil (hereinafter also referred to as “CO35”), and purified water (appropriate amount) was prepared.
Each of compounds 1 to 4 was stirred with the addition of the vehicle to give a 0.03% (w/v) solution.
EV06 was stirred with the addition of the vehicle to give a 0.03% (w/v) solution. (Test method) 1) Each test sample (2.5 μL/eye) was instilled into the right eye of 8-month-old C57BL/6J mice with a Pipetman 3 times per day (around 9:00, 13:00, 17:00) for 12 to 15 days. 2) After the final instillation, the mice were euthanized by carbon dioxide inhalation, and then the eyeballs were extracted and rinsed with Hank's balanced salt solution (HESS). 3) The sclera near the optic nerve was cut with a razor, the lens was removed through the incision, and the removed lens was immersed in HESS. 4) The lens was placed on a glass slide, and an all-in-one fluorescence microscope BZ-9000 (Keyence) was used to capture an image of the lens (Image a). 5) Next, one cover glass (Corning^registered trade mark) 22×22 mm Square) was placed on the lens, and an image in which the thickness of the lens changed due to the weight was similarly captured (Image b). 6) A change in the lens diameter was calculated from the following Equation 1 wherein the lens diameter of Image a is subtracted from the lens diameter of Image b. Then, the lens elasticity improvement of each sample group compared with the vehicle control group was calculated from Equation 2 described below. The mean value of the vehicle control group was based on 5 eyes, the mean value of each of the sample groups of compounds 1 to 4 was based on 10 eyes, and the mean value of EV06 sample group was based on 9 eyes.
as §1, §2

lens elasticity [3] = test: Pharmacological Test-2: lens elasticity at different concentrations, instillation 3 times per day for 12 to 15 days; assay type: in vivo, C57BL/6J mice; conditions: for Lens elasticity improvement: 3 times per day for 12 to 15 days, 7 to 8-month-old mice
Experimental: The effects of Compounds 1, 3, and 4 on the lens elasticity were investigated at different concentrations.
(§3) Vehicle A (aqueous solution) comprising 0.1% (w/v) of ethyl pyruvate, 0.269% (w/v) of sodium dihydrogenphosphate monohydrate (NaH2PO4.H2O), 0.433% (w/v) of disodium hydrogenphosphate (Na2HPO4), 0.2% (w/v) of hydroxypropyl methylcellulose, 0.5% (w/v) of NaCl, 0.2% (w/v) of 0035, and purified water (appropriate amount) was prepared.
as §3, with “B (emulsion)” for “A (aqueous solution)”, “CO35, 0.6% benzyl benzoate,” for “0035,”
as §3, with “Vehicle C” for “Vehicle A”, “NaCl, 1.0%” for “NaCl, 0.2%”
as §3, with “Vehicle D (emulsion)” for “Vehicle A (aqueous solution)”, “NaCl, 1.0%” for “NaCl, 0.2%”, “of CO35, 3.0% benzyl benzoate,” for “of 0035,”
A diluent (aqueous solution) comprising 0.1% (w/v) of ethyl pyruvate, 0.269% (w/v) of sodium dihydrogenphosphate monohydrate (NaH2PO4.H2O), 0.433% (w/v) of disodium hydrogenphosphate (Na2HPO4), 0.2% (w/v) of hydroxypropyl methylcellulose, 0.5% (w/v) of NaCl, and purified water (appropriate amount) was prepared.
Compound 1 was stirred with the addition of Vehicle C to prepare a 1.5% (w/v) emulsion, and the emulsion was diluted with the diluent to give a 0.3% (w/v) emulsion. Further, the resulting 0.3% (w/v) emulsion was diluted with the diluent to give a 0.03% (w/v) emulsion. Further, the resulting 0.03% (w/v) emulsion was diluted with the diluent to give a 0.003% (w/v) emulsion.
Compound 3 was stirred with the addition of Vehicle C to give a 1.5% (w/v) solution, and the resulting solution was diluted to give a 0.3% (w/v) solution. Further, the resulting 0.3% (w/v) solution was diluted with Vehicle A to give a 0.03% (w/v) solution. Further, the resulting 0.03% (w/v) solution was diluted with Vehicle A to give a 0.003% (w/v) solution.
Compound 4 was stirred with the addition of Vehicle D to give a 1.5% (w/v) emulsion, and the resulting emulsion was diluted with the diluent to prepare a 0.3% (w/v) emulsion. Further, the resulting 0.3% (w/v) emulsion was diluted with the diluent to give a 0.03% (w/v) emulsion. Further, the resulting 0.03% (w/v) emulsion was diluted with the diluent to give a 0.003% (w/v) emulsion.
EV06 was stirred with the addition of Vehicle A to give a 1.5% (w/v) solution, which was used for comparison to the samples of Compound 1 and 3.
EV06 was sonicated with the addition of Vehicle B to give a 1.5% (w/v) emulsion, which was used for comparison to Compound 4 sample.
(Test method) 1) Each test sample (2.5 μL/eye) was instilled into the right eye of 7 to 8-month-old C57BL/6J mice with a Pipetman 3 times per day (around 9:00, 13:00 and 17:00) for 12 to 15 days. 2) After the final instillation, the mice were euthanized by carbon dioxide inhalation, and then the eyeballs were extracted and rinsed with Hank's balanced salt solution (HESS). 3) The sclera near the optic nerve was cut with a razor, the lens was removed through the incision, and the removed lens was immersed in HESS. 4) The lens was placed on a glass slide, and an all-in-one fluorescence microscope BZ-9000 (Keyence) was used to capture an image of the lens (Image a). […]

Row | Compound | Lens elasticity improvement (lens elasticity [1]) [μm] | lens elasticity improving effect (lens elasticity [1]) | Lens elasticity improvement (lens elasticity [2]) [μm] | lens elasticity improving effect (lens elasticity [2]) | Lens elasticity improvement (lens elasticity [3]; 0.003% (w/v) sample) [μm] | Lens elasticity improvement (lens elasticity [3]; 0.03% (w/v) sample) [μm] | lens elasticity improvement compared with 1.5% EV06 group (lens elasticity [3]; 0.03% and 0.3% sample groups) | Lens elasticity improvement (lens elasticity [3]; 0.3% (w/v) sample) [μm]
1 | Cc1ncc(COC(=O)CCCC[C@@H]2CCSS2)c2c1OC(C)(C)OC2 [Compound 6, (2,2,5-Trimethyl-4H-[1,3]dioxo[5,4-c]pyridin-8-yl)methyl (R)-5-(1,2-dithiolan-3-yl)pentanoate] | 38.1 | potent lens elasticity improving effect |  |  |  |  |  | 
2 | C[N+](C)(CCOC(=O)CCCC[C@@H]1CCSS1)Cc1ccccc1.[Cl-] [Compound 2, (R)-2-((5-(1,2-Dithiolan-3-yl)pentanoyl)oxy)-N-benzyl-N,N-dimethylethan-1-aminium chloride] |  |  | 6.1 | did not show lens elasticity improving effect |  |  |  | 
3 | O=C(CCCC[C@@H]1CCSS1)OCCN1CCOCC1 [Compound 4, 2-Morpholinoethyl (R)-5-(1,2-dithiolan-3-yl)pentanoate] |  |  | 37.5 | potent lens elasticity improving effect | 25.0 | 56.5 | equivalent to or better than 1.5% EV06 group | 52.9
4 | O=C(CCCC[C@@H]1CCSS1)OC(CN1CCOCC1)CN1CCOCC1 [Compound 5, 1,3-Dimorpholinopropan-2-yl (R)-5-(1,2-dithiolan-3-yl)pentanoate] | 40.7 | potent lens elasticity improving effect |  |  |  |  |  | 
